Measured values as given in US8524911B2, “3-arylamino pyridine derivatives” (Merck Serono SA, priority 2004, dated 2013).

Assays:
human MEK1 = human MEK1 (Homo sapiens, UniProt Q02750); assay: MEK-1 Enzyme Assay (LANCE-HTRF); assay type: biochemical; conditions: 100 nM MEK1, 15 μM ATP, 300 nM ERK2, two hours; read-out: MEK inhibition
In short: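 TR-FRET readout of MEK1-catalysed ERK1 phosphorylation; after a 2 h reaction, Eu-anti-PY20 (5 nM) and anti-GST-APC (50 nM) were added in buffer with 50 mM EDTA and 0.05% BSA, then incubated 1 h in the dark.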

[1] = system: human pancreatic MiaPaCa-2 cells; assay: Tumor cell proliferation assay (ATP Lite), MiaPaCa-2; assay type: cell-based; conditions: MIA PaCa-2, 96 h, 4 days
Description: (§1) Assay 2: Tumor Cell Proliferation Assays (ATP Lite)
(§2) Murine colon C26, human melanoma A375 and MeI5 or human pancreatic MiaPaCa-2 cells were plated in 96 well Corning white plates (1500 cells/well for C26, and 2000 cells/well for A375, and MiaPaCa-2) and cultured overnight at 37° C. in 5% CO2. Inhibitors were serially diluted in 100% DMSO and subsequently added to cells to reach a final concentration of 0.25% DMSO. The cells were incubated for 4 days in the presence of test compounds in cell growth media (DMEM with 10% fetal bovine serum, 2 mM glutamine for C26, and MiaPaCa-2, and RPMI with 10% fetal bovine serum, 2 mM glutamine for A375). Cell proliferation was quantitated using the ATP lite cell proliferation kit (Packard). Columns 4-6 show the concentration of compounds required to induce 50% cell death (IC50 in μM) of […]. With “+” meaning 3 μM<IC50≦10 μM and “++” IC50≦3 μM and “n.d.” means not determined. Few compounds were also tested on human melanoma cell MeI5.

[2] = system: human melanoma A375 cells; assay: Tumor cell proliferation assay (ATP Lite), A375; assay type: cell-based; conditions: A-375, 96 h, 4 days
Description: as §1, §2

Murine colon C26 cells = assay: Tumor cell proliferation assay (ATP Lite), C26; assay type: cell-based; conditions: Mus musculus, 96 h, 4 days
Description: as §1, §2

human MEK1, sequence (Q02750 whole entry): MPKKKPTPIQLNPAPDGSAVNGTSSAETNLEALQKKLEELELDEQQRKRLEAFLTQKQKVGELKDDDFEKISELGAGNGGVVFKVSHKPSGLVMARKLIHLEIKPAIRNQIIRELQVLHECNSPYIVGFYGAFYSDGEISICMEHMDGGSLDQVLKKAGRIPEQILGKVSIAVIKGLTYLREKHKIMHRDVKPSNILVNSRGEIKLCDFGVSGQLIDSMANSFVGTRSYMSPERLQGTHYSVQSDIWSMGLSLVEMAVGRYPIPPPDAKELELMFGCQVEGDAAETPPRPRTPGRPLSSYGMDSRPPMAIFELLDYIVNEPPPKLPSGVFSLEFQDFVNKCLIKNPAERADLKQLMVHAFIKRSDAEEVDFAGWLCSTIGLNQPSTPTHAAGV

Row | IC50 (human MEK1) [nM] | IC50 [1] [µM] | IC50 [2] [µM] | IC50 (Murine colon C26 cells) [µM] | Compound
1 | < 1000 | 3 to 10 | ≤ 3 | 3 to 10 | O=C(NCCc1cccc(Cl)c1)c1ccncc1Nc1ccc(I)cc1F [Example 29, N-[2-(3-chlorophenyl)ethyl]-3-[(2-fluoro-4-iodophenyl)-amino]isonicotinamide]
2 | < 1000 | ≤ 3 | ≤ 3 | ≤ 3 | O=C(c1ccncc1Nc1ccc(I)cc1F)N1CCOCC1 [Example 17, [3-(2-Fluoro-4-iodo-phenylamino)-pyridin-4-yl]-morpholin-4-yl-methanone]
3 | < 1000 | 3 to 10 | ≤ 3 | 3 to 10 | CCONC(=O)c1ccncc1Nc1ccc(I)cc1Cl [Example 76]
4 | < 1000 | 3 to 10 | ≤ 3 | 3 to 10 | CC(C)(C)ONC(=O)c1ccncc1Nc1ccc(I)cc1Cl [Example 65]
5 | < 1000 | 3 to 10 | ≤ 3 | 3 to 10 | O=C(NCCO)c1cc(Br)ncc1Nc1ccc(I)cc1F [Example 74, 2-Bromo-5-(2-fluoro-4-iodo-phenylamino)-N-(2-hydroxy-ethyl)-isonicotinamide]
6 | < 1000 | 3 to 10 | 3 to 10 | 3 to 10 | O=C(NCCN1CCOCC1)c1cc(Br)ncc1Nc1ccc(I)cc1F [Example 88, 2-Bromo-5-(2-fluoro-4-iodo-phenylamino)-N-(2-morpholin-4-yl-ethyl)-isonicotinamide]
7 | < 1000 | ≤ 3 | ≤ 3 | ≤ 3 | NC(=O)c1ccnc(Cl)c1Nc1ccc(I)cc1F [Example 31, 2-Chloro-3-(2-fluoro-4-iodo-phenylamino)-isonicotinamide]
8 | < 1000 | 3 to 10 | ≤ 3 | 3 to 10 | O=C(NCc1ccccc1)c1ccncc1Nc1ccc(I)cc1F [Example 21, N-benzyl-3-[(2-fluoro-4-iodophenyl)amino]isonicotinamide]
9 | < 1000 | ≤ 3 | ≤ 3 | ≤ 3 | NC(=O)c1ccncc1Nc1ccc(I)cc1 [Example 67, 3-(4-iodo-phenylamino)-isonicotinamide]
10 | < 1000 | ≤ 3 | ≤ 3 | ≤ 3 | COCCNC(=O)c1ccncc1Nc1ccc(I)cc1F [Example 16, 3-(2-Fluoro-4-iodo-phenylamino)-N-(2-methoxy-ethyl)-isonicotinamide]
11 | < 1000 | 3 to 10 | ≤ 3 | 3 to 10 | O=C(O)c1ccc(CNC(=O)c2ccncc2Nc2ccc(I)cc2F)cc1 [Example 46, 4-[({3-[(2-fluoro-4-iodophenyl)amino]isonicotinoyl}-amino)methyl]benzoic acid]
12 | < 1000 | ≤ 3 | ≤ 3 | ≤ 3 | O=C(NOC[C@H](O)CO)c1ccncc1Nc1ccc(I)cc1Cl [Example 8, 3-[(2-chloro-4-iodophenyl)amino]-N-{[(2R)-2,3-dihydroxypropyl]oxy}-isonicotinamide]
13 | < 1000 | ≤ 3 | ≤ 3 | 3 to 10 | NNC(=O)c1ccncc1Nc1ccc(I)cc1F [Example 51, 3-[(2-fluoro-4-iodophenyl)amino]isonicotinohydrazide]
14 | < 1000 | 3 to 10 | ≤ 3 | 3 to 10 | O=C(NNC(=O)c1n[nH]c2ccccc12)c1ccncc1Nc1ccc(I)cc1F [Example 28, N′-{3-[(2-fluoro-4-iodophenyl)amino]isonicotinoyl}-1H-indazole-3-carbohydrazide]
15 | < 1000 | 3 to 10 | ≤ 3 | 3 to 10 | COc1cccc(C(=O)NNC(=O)c2ccncc2Nc2ccc(I)cc2F)c1 [Example 55, 3-[(2-fluoro-4-iodophenyl)amino]-N′-(3-methoxybenzoyl)-isonicotinohydrazide]
16 | < 1000 | ≤ 3 | ≤ 3 | ≤ 3 | O=C(NCCCN1CCOCC1)c1ccncc1Nc1ccc(I)cc1F [Example 35, 3-[(2-fluoro-4-iodophenyl)amino]-N-(3-morpholin-4-ylpropyl)-isonicotinamide]
17 | < 1000 | 3 to 10 | ≤ 3 | 3 to 10 | O=C(NN1CCCCCC1)c1ccncc1Nc1ccc(I)cc1F [Example 42, N-azepan-1-yl-3-[(2-fluoro-4-iodophenyl)amino]isonicotinamide]

Row | IC50 (human MEK1) [nM] | IC50 [1] [µM] | IC50 [2] [µM] | IC50 (Murine colon C26 cells) [µM] | Compound
18 | < 1000 | ≤ 3 | ≤ 3 | ≤ 3 | O=C(NC1CC1)c1ccncc1Nc1ccc(I)cc1F [Example 47, N-cyclopropyl-3-[(2-fluoro-4-iodophenyl)amino]isonicotinamide]
19 | < 1000 | 3 to 10 | ≤ 3 | 3 to 10 | O=C(NNc1nccc(C(F)(F)F)n1)c1ccncc1Nc1ccc(I)cc1F [Example 50, 3-[(2-fluoro-4-iodophenyl)amino]-N′-[4-(trifluoromethyl)pyrimidin-2-yl]isonicotinohydrazide]
20 | < 1000 | 3 to 10 | ≤ 3 | 3 to 10 | O=C(NCCOc1ccccc1)c1ccncc1Nc1ccc(I)cc1F [Example 26, 3-[(2-fluoro-4-iodophenyl)amino]-N-(2-phenoxyethyl)-isonicotinamide]
21 | < 1000 | 3 to 10 | ≤ 3 | 3 to 10 | Cc1nccc(C(N)=O)c1Nc1ccc(I)cc1F [Example 100, 3-(2-Fluoro-4-iodo-phenylamino)-2-methyl-isonicotinamide]
22 | < 1000 | ≤ 3 | ≤ 3 | ≤ 3 | O=C(NCC(O)COc1ccccc1)c1ccncc1Nc1ccc(I)cc1F (stereo not drawn) [Example 83]
23 | 1000 to 10000 | 3 to 10 | ≤ 3 | 3 to 10 | O=C(NNc1ccnc2cc(Cl)ccc12)c1ccncc1Nc1ccc(I)cc1F [Example 56, N′-(7-chloroquinolin-4-yl)-3-[(2-fluoro-4-iodophenyl)amino]-isonicotino-hydrazide]
24 | < 1000 | 3 to 10 | ≤ 3 | 3 to 10 | C=CCONC(=O)c1ccncc1Nc1ccc(I)cc1Cl [Example 77, N-allyloxy-3-(2-chloro-4-iodo-phenylamino)-isonicotinamide]
25 | < 1000 | 3 to 10 | ≤ 3 | 3 to 10 | Cc1ccc(NNC(=O)c2ccncc2Nc2ccc(I)cc2F)cc1 [Example 99, 3-[(2-fluoro-4-iodophenyl)amino]-N′-(4-methylphenyl)isonicotino-hydrazide]
26 | < 1000 | 3 to 10 | ≤ 3 | 3 to 10 | O=C(NCc1ccc(F)cc1F)c1ccncc1Nc1ccc(I)cc1F [Example 93, N-(2,4-difluorobenzyl)-3-[(2-fluoro-4-iodophenyl)amino]-isonicotinamide]
27 | < 1000 | ≤ 3 | ≤ 3 | ≤ 3 | O=C(NCCO)c1ccncc1Nc1ccc(I)cc1F [Example 15, 3-(2-Fluoro-4-iodo-phenylamino)-N-(2-hydroxy-ethyl)-isonicotinamide]
28 | < 1000 | ≤ 3 | ≤ 3 | ≤ 3 | CCNC(=O)c1ccncc1Nc1ccc(I)cc1F [Example 18, N-ethyl-3-[(2-fluoro-4-iodophenyl)amino]isonicotinamide]
29 | < 1000 | ≤ 3 | ≤ 3 | ≤ 3 | O=C(NCC1CC1)c1ccncc1Nc1ccc(I)cc1F [Example 53, N-(cyclopropylmethyl)-3-[(2-fluoro-4-iodophenyl)amino]-isonicotinamide]
30 | < 1000 | ≤ 3 | ≤ 3 | ≤ 3 | O=C(NCCN1CCCCC1)c1ccncc1Nc1ccc(I)cc1F [Example 33, 3-[(2-fluoro-4-iodophenyl)amino]-N-(2-piperidin-1-ylethyl)-isonicotinamide]
31 | < 1000 | ≤ 3 | ≤ 3 | ≤ 3 | O=C(NC1CCC1)c1ccncc1Nc1ccc(I)cc1F [Example 58, N-cyclobutyl-3-[(2-fluoro-4-iodophenyl)amino]isonicotinamide]
32 | < 1000 | ≤ 3 | ≤ 3 | ≤ 3 | O=C(NCCCn1ccnc1)c1ccncc1Nc1ccc(I)cc1F [Example 20, 3-[(2-fluoro-4-iodophenyl)amino]-N-[3-(1H-imidazol-1yl)propyl]-isonicotinamide]
33 | < 1000 | 3 to 10 | ≤ 3 | 3 to 10 | O=C(NCCCn1ccnc1)c1cc(Br)ncc1Nc1ccc(I)cc1F [Example 72, 2-Bromo-5-(2-fluoro-4-iodo-phenylamino)-N-(3-imidazol-1-yl-propyl)-isonicotinamide]
